Results on 9 cell lines are retold here after the supplement of paper PMC10307832.

Experiment in all cases: relative viability (nuclei count vs DMSO), 5 days (fraction); higher = more cells survive
Compound in the assay “Decitabine + Bortezomib”: Nc1ncn([C@H]2C[C@H](O)[C@@H](CO)O2)c(=O)n1 [Decitabine] + CC(C)C[C@H](NC(=O)[C@H](Cc1ccccc1)NC(=O)c1cnccn1)B(O)O [Bortezomib] (partner 0.002 µM)
In short, it runs like this: (§1)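 After 5 days of treatment, lung cancer cells in 1536-well plates were fixed and stained in a single step (final 0.05% Triton X-100, 1% formaldehyde, 1 ug/ml Hoechst) and their nuclei counted on 4× images. Treatment had been applied by pin tool the day after seeding as one drug alone or as a fixed anchor-drug dose with five library-drug doses (not always all listed) in √10 steps. Relative viability is the nuclei count of treated wells divided by that of vehicle wells, and values are medians of duplicate plates.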

Compound in the assay “Decitabine + Luminespib”: Nc1ncn([C@H]2C[C@H](O)[C@@H](CO)O2)c(=O)n1 [Decitabine] + CCNC(=O)c1noc(-c2cc(C(C)C)c(O)cc2O)c1-c1ccc(CN2CCOCC2)cc1 [Luminespib] (partner 0.01 µM)
In short, it runs like this: as §1

Compound in assay [1]: O=C(C[C@H]1NCCC[C@@H]1O)Cn1cnc2cc(Br)c(Cl)cc2c1=O (racemic) [Halofuginone] + Nc1ncn([C@H]2C[C@H](O)[C@@H](CO)O2)c(=O)n1 [Decitabine] (partner 2 µM)
Summed up: as §1

Compound in the assay “Cediranib + Phenformin”: COc1cc2c(Oc3ccc4[nH]c(C)cc4c3F)ncnc2cc1OCCCN1CCCC1 [Cediranib] + N=C(N)NC(=N)NCCc1ccccc1 [Phenformin] (partner 250 µM)
Summed up: as §1

As for EBC-1, the relative viability with Decitabine + Bortezomib (first compound 0.04 µM) worked out at 0.395; with Decitabine + Bortezomib (first compound 0.1265 µM), 0.406; in the assay with Decitabine + Bortezomib (first compound 0.4 µM), 0.29; with Decitabine + Bortezomib (first compound 1.265 µM), 0.268; in the assay with Decitabine + Bortezomib (first compound 4 µM), 0.257.

As for EKVX, the relative viability in the assay with Decitabine + Luminespib (first compound 0.04 µM) came out at 0.68; in the assay with Decitabine + Luminespib (first compound 0.1265 µM) it was 0.682; with Decitabine + Luminespib (first compound 0.4 µM), 0.551; with Decitabine + Luminespib (first compound 1.265 µM), 0.389; with Decitabine + Luminespib (first compound 4 µM), 0.322; with Decitabine + Bortezomib (first compound 0.04 µM) it was 0.71. For the same cell line, the relative viability with Decitabine + Bortezomib (first compound 0.1265 µM) worked out at 0.776; with Decitabine + Bortezomib (first compound 0.4 µM) it was 0.798; with Decitabine + Bortezomib (first compound 1.265 µM), 0.383; with Decitabine + Bortezomib (first compound 4 µM), 0.381; in assay [1] (first compound 0.001 µM), 0.317; in assay [1] (first compound 0.003162 µM), 0.313. The relative viability stood at 0.281 in assay [1] (first compound 0.01 µM); 0.354 in assay [1] (first compound 0.03162 µM); 0.276 in assay [1] (first compound 0.1 µM); 0.212 with Cediranib + Phenformin (first compound 0.04 µM); 0.177 with Cediranib + Phenformin (first compound 0.1265 µM); 0.221 with Cediranib + Phenformin (first compound 0.4 µM). Besides, the relative viability with Cediranib + Phenformin (first compound 1.265 µM) was 0.259; in the assay with Cediranib + Phenformin (first compound 4 µM) it was 0.233.

As to EMC-BAC-2, the relative viability was 1.02 with Decitabine + Luminespib (first compound 0.04 µM); 0.927 with Decitabine + Luminespib (first compound 0.1265 µM); 0.715 with Decitabine + Luminespib (first compound 0.4 µM); 0.602 with Decitabine + Luminespib (first compound 1.265 µM); 0.584 in the assay with Decitabine + Luminespib (first compound 4 µM); 1.04 with Decitabine + Bortezomib (first compound 0.04 µM). For the same cell line, the relative viability turned out to be 1.13 with Decitabine + Bortezomib (first compound 0.1265 µM); 0.754 in the assay with Decitabine + Bortezomib (first compound 0.4 µM); 0.747 with Decitabine + Bortezomib (first compound 1.265 µM); 0.632 in the assay with Decitabine + Bortezomib (first compound 4 µM); 0.989 in assay [1] (first compound 0.001 µM); 1 in assay [1] (first compound 0.003162 µM). The relative viability came to 0.917 in assay [1] (first compound 0.01 µM); 0.874 in assay [1] (first compound 0.03162 µM); 0.409 in assay [1] (first compound 0.1 µM); 0.507 with Cediranib + Phenformin (first compound 0.04 µM); 0.583 with Cediranib + Phenformin (first compound 0.1265 µM); 0.535 with Cediranib + Phenformin (first compound 0.4 µM). The relative viability came out at 0.484 in the assay with Cediranib + Phenformin (first compound 1.265 µM) and 0.436 with Cediranib + Phenformin (first compound 4 µM).

Consider EPLC-272H, for which the relative viability in the assay with Decitabine + Luminespib (first compound 0.1265 µM) came out at 0.561; with Decitabine + Luminespib (first compound 0.4 µM), 0.249; in the assay with Decitabine + Luminespib (first compound 1.265 µM), 0.227; with Decitabine + Luminespib (first compound 4 µM) it was 0.321; with Decitabine + Bortezomib (first compound 0.04 µM), 0.884; with Decitabine + Bortezomib (first compound 0.1265 µM) it was 0.57. The relative viability with Decitabine + Bortezomib (first compound 1.265 µM) was determined as 0.584; with Decitabine + Bortezomib (first compound 4 µM) it was 0.418; in assay [1] (first compound 0.001 µM) it was 0.421; in assay [1] (first compound 0.003162 µM), 0.4; in assay [1] (first compound 0.01 µM), 0.39; in assay [1] (first compound 0.03162 µM), 0.436. The relative viability turned out to be 0.351 in assay [1] (first compound 0.1 µM), 0.307 with Cediranib + Phenformin (first compound 0.04 µM), 0.334 in the assay with Cediranib + Phenformin (first compound 0.4 µM) and 0.253 in the assay with Cediranib + Phenformin (first compound 4 µM).

Take H3255: the relative viability in the assay with Decitabine + Luminespib (first compound 0.1265 µM) stood at 0.765; with Decitabine + Luminespib (first compound 0.4 µM), 0.64; with Decitabine + Luminespib (first compound 1.265 µM), 0.657; in the assay with Decitabine + Luminespib (first compound 4 µM), 0.601; with Decitabine + Bortezomib (first compound 0.04 µM), 0.294; with Decitabine + Bortezomib (first compound 0.1265 µM), 0.751. Besides, the relative viability stood at 0.479 with Decitabine + Bortezomib (first compound 0.4 µM); 0.521 with Decitabine + Bortezomib (first compound 1.265 µM); 0.705 in the assay with Decitabine + Bortezomib (first compound 4 µM); 0.593 in assay [1] (first compound 0.001 µM); 0.682 in assay [1] (first compound 0.003162 µM); 0.567 in assay [1] (first compound 0.01 µM). Moreover, the relative viability in assay [1] (first compound 0.03162 µM) amounted to 0.628; in assay [1] (first compound 0.1 µM) it was 0.517; with Cediranib + Phenformin (first compound 0.04 µM) it was 0.404; with Cediranib + Phenformin (first compound 0.4 µM) it was 0.337; with Cediranib + Phenformin (first compound 1.265 µM), 0.373; with Cediranib + Phenformin (first compound 4 µM), 0.312.

With HARA, the relative viability with Decitabine + Luminespib (first compound 0.04 µM) stood at 0.802; with Decitabine + Luminespib (first compound 0.1265 µM), 0.544; with Decitabine + Luminespib (first compound 0.4 µM), 0.34; with Decitabine + Luminespib (first compound 1.265 µM), 0.144; in the assay with Decitabine + Luminespib (first compound 4 µM), 0.158; with Decitabine + Bortezomib (first compound 0.04 µM), 0.819. For the same cell line, the relative viability was found to be 0.7 with Decitabine + Bortezomib (first compound 0.1265 µM); 0.511 with Decitabine + Bortezomib (first compound 0.4 µM); 0.431 in the assay with Decitabine + Bortezomib (first compound 1.265 µM); 0.308 in the assay with Decitabine + Bortezomib (first compound 4 µM); 0.664 in assay [1] (first compound 0.001 µM); 0.648 in assay [1] (first compound 0.003162 µM). Moreover, the relative viability in assay [1] (first compound 0.01 µM) is 0.611; in assay [1] (first compound 0.03162 µM), 0.591; in assay [1] (first compound 0.1 µM), 0.434; with Cediranib + Phenformin (first compound 0.04 µM), 0.331; in the assay with Cediranib + Phenformin (first compound 0.4 µM) it was 0.391; with Cediranib + Phenformin (first compound 1.265 µM), 0.429. Besides, in the assay with Cediranib + Phenformin (first compound 4 µM), the relative viability is 0.454.

For HCC-15, the relative viability worked out at 0.301 with Decitabine + Luminespib (first compound 0.04 µM); 0.38 with Decitabine + Luminespib (first compound 0.1265 µM); 0.267 in the assay with Decitabine + Luminespib (first compound 0.4 µM); 0.191 in the assay with Decitabine + Luminespib (first compound 1.265 µM); 0.195 with Decitabine + Luminespib (first compound 4 µM); 0.936 with Decitabine + Bortezomib (first compound 0.04 µM). Moreover, the relative viability with Decitabine + Bortezomib (first compound 0.1265 µM) came to 0.891; with Decitabine + Bortezomib (first compound 0.4 µM), 0.381; with Decitabine + Bortezomib (first compound 1.265 µM), 0.467; with Decitabine + Bortezomib (first compound 4 µM) it was 0.493; in assay [1] (first compound 0.001 µM) it was 0.647; in assay [1] (first compound 0.003162 µM), 0.71. The relative viability in assay [1] (first compound 0.01 µM) turned out to be 0.747; in assay [1] (first compound 0.03162 µM), 0.676; in assay [1] (first compound 0.1 µM), 0.482; in the assay with Cediranib + Phenformin (first compound 0.04 µM), 0.491; in the assay with Cediranib + Phenformin (first compound 0.4 µM), 0.474; in the assay with Cediranib + Phenformin (first compound 1.265 µM), 0.512. Also, the relative viability in the assay with Cediranib + Phenformin (first compound 4 µM) amounted to 0.509.

As to HCC-44, the relative viability in the assay with Decitabine + Luminespib (first compound 0.1265 µM) was determined as 0.848; with Decitabine + Luminespib (first compound 0.4 µM) it was 0.52; with Decitabine + Luminespib (first compound 1.265 µM), 0.618; with Decitabine + Luminespib (first compound 4 µM), 0.471; with Decitabine + Bortezomib (first compound 0.04 µM), 0.821; with Decitabine + Bortezomib (first compound 0.1265 µM) it was 0.898. In addition, the relative viability in the assay with Decitabine + Bortezomib (first compound 0.4 µM) was 0.536; with Decitabine + Bortezomib (first compound 1.265 µM) it was 0.602; with Decitabine + Bortezomib (first compound 4 µM), 0.548; in assay [1] (first compound 0.001 µM), 0.967; in assay [1] (first compound 0.003162 µM), 0.992; in assay [1] (first compound 0.01 µM), 0.953. Besides, the relative viability was determined as 0.973 in assay [1] (first compound 0.03162 µM); 0.902 in assay [1] (first compound 0.1 µM); 0.195 in the assay with Cediranib + Phenformin (first compound 0.04 µM); 0.241 with Cediranib + Phenformin (first compound 0.4 µM); 0.224 in the assay with Cediranib + Phenformin (first compound 1.265 µM); 0.201 with Cediranib + Phenformin (first compound 4 µM).

For HCC-78, the relative viability with Decitabine + Bortezomib (first compound 0.04 µM) turned out to be 0.52; in the assay with Decitabine + Bortezomib (first compound 0.1265 µM) it was 0.517; in the assay with Decitabine + Bortezomib (first compound 0.4 µM) it was 0.435; in the assay with Decitabine + Bortezomib (first compound 1.265 µM), 0.385; with Decitabine + Bortezomib (first compound 4 µM) it was 0.328; in assay [1] (first compound 0.001 µM), 0.688. Moreover, the relative viability in assay [1] (first compound 0.003162 µM) came out at 0.678; in assay [1] (first compound 0.01 µM), 0.667; in assay [1] (first compound 0.03162 µM) it was 0.69; in assay [1] (first compound 0.1 µM) it was 0.714; with Cediranib + Phenformin (first compound 0.04 µM) it was 0.712; with Cediranib + Phenformin (first compound 0.1265 µM), 0.709. In addition, the results for the relative viability with Cediranib + Phenformin (first compound 0.4 µM), in the assay with Cediranib + Phenformin (first compound 1.265 µM) and with Cediranib + Phenformin (first compound 4 µM) were 0.649, 0.607 and 0.718, respectively.
